Patent EP4728880A1, “CORDYCEPS SINENSIS FERMENTATION COMPOSITION” (Hangzhou Zhongmeihuadong Pharmaceutical Jiangdong Co., Ltd, priority 2023, dated 2024)
Where two headings read alike, the source gives them in different places.

Assays:
[1] = Hydroxyl radical scavenging rate (Fenton colorimetric method); assay type: biochemical
Description: IV. Detection of hydroxyl radical scavenging rate (Fenton colorimetric method)
H2O2/Fe^2+ produces a hydroxyl radical through a Fenton reaction, Fe^2+ is oxidized into Fe^3+, and red phenanthroline-Fe^2+ is oxidized into colorless phenanthroline-Fe^3+, so that the maximum absorption peak of the phenanthroline-Fe^2+ disappears at 536 nm. The absorbance change at 530-540 nm may be determined by a spectrophotometer. Thus, content change of the hydroxyl radical can be calculated, that is, the hydroxyl radical scavenging rate or scavenging capacity of the sample can be calculated.
• 1. 0.2 g of mycelia powder was weighed; 2 mL of purified water was added; the mycelia powder and the water were uniformly mixed; the mixture was placed at a room temperature for standing for 4 h; the solution was centrifuged at 10000 rpm for 10 min; and the supernatant was taken for later use. • 2. Other samples served as reference solutions.
The spectrophotometer was started for preheating for 30 min; the wavelength was adjusted to 536 nm; and the purified water was subjected to zero setting.
A blank tube, an undamaged tube, a damaged tube, a control tube and a determination tube were set according to the following table; the solutions were added in sequence; and the solutions were uniformly mixed and placed in a water bath at 37°C for 1 h.
(§1) Calculation: To-be-tested sample•OH scavenging rate (%)=[(A3-A3')-(A2-A0)]/(A1-A2)×100% • V. Detection methods of adenosine, mannitol, total amino acid content and water were conducted according to the detection method under the fermented Cordyceps sinensis. mycelia powder item in accordance with National Drug Standards. • VI. Detection method of tyrosinase inhibition rate • 1. Preparation of a solution: • (1) Preparation of a PBS: 3.4022 g of potassium dihydrogen phosphate and 5.7055 g of potassium phosphate dibasic trihydrate were respectively weighed and then dissolved with an appropriate amount of distilled water; the volume was fixed in a 1000 mL volumetric flask; the solution was shaken up to obtain the PBS having a pH value of 6.81 and a concentration of 0.05 mol·L-1, and the PBS was kept in a dark place at 4°C in a refrigerator. • (2) Preparation of an L-Dopa solution: 0.0395 g of L-Dopa was precisely weighed and dissolved with the prepared PBS; the solution was transferred into a 100 mL volumetric flask; the volume was fixed; the solution was shaken up and subjected to ultrasonic treatment to obtain the L-Dopa solution of 2 mmol·L-1. The solution was used when prepared. • (3) Preparation of a TYR ([…]) solution: 25 KU of the TYR was totally dissolved with a small amount of PBS; the solution was repeatedly washed for several times; the washing liquid was transferred into the […] volumetric flask; the volume was fixed with the PBS; the liquid was shaken up to obtain a TYR solution of 250 U·mL-1; then the mother solution was diluted to 125 U·mL-1; and the solution was preserved at -20°C in the refrigerator for later use. • 2. Preparation of samples: 250 mg/ml of an erythritol mother solution: 2.5 g of erythritol was weighed, and 10 ml of purified water was added; 250 mg/ml of a mannitol mother solution: 7.5 g of mannitol was weighed, 30 ml of purified water was added, the mixture was heated and dissolved; and the solution was diluted into the needed concentration according to each reaction system and then added into the detection system. • 3. Determination of the sample on TYR inhibitory activity

tyrosinase = experiment: Tyrosinase inhibition rate (L-Dopa substrate, absorbance at 475 nm); assay type: biochemical; details: combination of both amounts, negative = activation rate
Method: as §1
The reaction system was shown as Table 4.2. […] A calculation formula of the inhibition rate was as follows: when the calculated result was negative, the absolute value of the negative was an activation rate.
Inhibition rate = ((A1−A2)−(A3−A4))/(A1 −A2) × 100% [formula] • A1: absorbance of a reaction solution with TYR instead of the sample determined at 475 nm; • A2: absorbance of a reaction solution without the sample nor the TYR determined at 475 nm; • A3: absorbance of a reaction solution with both the sample and the TYR determined at 475 nm; • A4: absorbance of a reaction solution with the sample instead of the TYR determined at 475 nm.

[2] = cited from earlier work
[3] = cited from earlier work; remark: listed apart in the source
[4] = in water, at 25°C; cited from earlier work
[5] = EGT 0.4 ml (0.02 mg/ml), Adenosine 0.4 ml (0.02 mg/ml), combination 0.2 ml (0.02 mg/ml) + 0.2 ml (0.02 mg/ml)
[6] = Erythritol 12.5 mg (6.25 mg/ml), Adenosine 0.15 ml (0.75 mg/ml), combination of both amounts
[7] = Erythritol 12.5 mg (6.25 mg/ml), Adenosine 0.15 ml (2.5 mg/ml), combination of both amounts
[8] = Erythritol 0.75 mg (3.75 mg/ml), Mannitol 1.25 mg (6.25 mg/ml)
[9] = Erythritol 1.25 mg (6.25 mg/ml), Mannitol 1.25 mg (6.25 mg/ml)
[10] = Erythritol 1.75 mg (8.75 mg/ml), Mannitol 2.5 mg (12.5 mg/ml)
[11] = Erythritol 0.75 mg (3.75 mg/ml), Mannitol 2.5 mg (12.5 mg/ml), combination of both amounts
[12] = Erythritol 1.5 mg (7.5 mg/ml), Mannitol 2.5 mg (12.5 mg/ml), combination of both amounts
[13] = Erythritol 1.75 mg (8.75 mg/ml), Mannitol 2.5 mg (12.5 mg/ml), combination of both amounts
[14] = Erythritol 2 mg (10 mg/ml), Mannitol 2.5 mg (12.5 mg/ml), combination of both amounts
[15] = Erythritol 2.5 mg (12.5 mg/ml), Mannitol 2.5 mg (12.5 mg/ml), combination of both amounts

| SMILES | OH clearance rate (%) [1, 5] [%] | OH clearance rate (%) ([1]; EGT 0.4 ml (0.05 mg/ml), Erythritol 0.4 ml (0.05 mg/ml), combination 0.2 ml (0.05 mg/ml) + 0.2 ml (0.05 mg/ml)) | OH clearance rate (%) [1, 6] [%] | OH clearance rate (%) [1, 7] [%] | Tyrosinase inhibition rate (%) (tyrosinase; [8]) | Tyrosinase inhibition rate (%) (tyrosinase; [9]) | Tyrosinase inhibition rate (%) (tyrosinase; [10]) | OH clearance rate (%) [1, 11] [%] | OH clearance rate (%) [1, 12] [%] | OH clearance rate (%) [1, 13] [%] | OH clearance rate (%) [1, 14] [%] | OH clearance rate (%) [1, 15] [%] | absorbed in small intestine via passive diffusion ([2]; after ingestion by a human body) | absorbed erythritol oxidized into erythrose in blood ([2]; human body, share of the absorbed amount) | intestinal tolerance ([3]; children aged 4-6 years, beverages containing 15 g) | intestinal tolerance ([3]; healthy volunteers aged 18-24 years, 20-35 g in a liquid form) | intestinal tolerance ([3]; healthy volunteers aged 18-24 years, intake of 50 g) | solubility [4] [%] |
| --- | --- | --- | --- | --- | --- | --- | --- | --- | --- | --- | --- | --- | --- | --- | --- | --- | --- | --- |
| C[N+](C)(C)[C@@H](Cc1c[nH]c(=S)[nH]1)C(=O)[O-] [EGT, Ergothioneine] | -5.70 | 2.08 | – | – | – | – | – | – | – | – | – | – | – | – | – | – | – | – |
| Nc1ncnc2c1ncn2[C@@H]1O[C@H](CO)[C@@H](O)[C@H]1O [Adenosine, adenosine] | 0.00 | – | 10.57 | 7.17 | – | – | – | – | – | – | – | – | – | – | – | – | – | – |
| OC[C@@H](O)[C@@H](O)[C@H](O)[C@H](O)CO [Mannitol, D-mannitol] | – | – | – | – | 3.62 | 2.51 | 2.51 | 17.91 | 7.48 | 7.48 | 7.48 | 7.48 | – | – | – | – | – | – |
| OCC(O)C(O)CO (centres unmarked) [Erythritol, 1,2,3,4-butanetetraol] | – | – | -8.17 | -5.8 | -1.06 | 1.71 | 6.39 | 5.14 | 2.44 | 11.76 | 20.15 | 11.45 | 80-90% | 5-10% | the diarrhea and/or a severe intestinal symptom is not observed | good intestinal tolerance without any adverse symptom | symptoms such as diarrhea and nausea were observed | 37 |
